Columns and labels:
[1] = test system: [α-32P]cap-labeled LRRK2 RNA; experiment: In vitro decapping assay; type: biochemical, human; details: recombinant Flag-tagged protein from HEK 293T cells, thin layer chromatography
LRRK2 = experiment: Endogenous LRRK2 levels in SH-SY5Y cells, Western blot; type: cell-based, human
[2] = stated as reason for using the precursor AICAr; cited from earlier work

DCP2: recombinant Flag-tagged decapping enzyme purified from HEK 293T cells
LRRK2 mRNA decapping activity (m7GDP level) [1]: decapped LRRK2 mRNA

O=[N+]([O-])c1ccc(CSc2ncnc3c2ncn3[C@@H]2O[C@H](CO)[C@@H](O)[C@H]2O)cc1 [NBTI]
effect of AICAr on LRRK2 levels in the presence of NBTI (LRRK2; SH-SY5Y, 1 mM AICAr plus 50 μM NBT-1, 48 hours): completely abolished

Nc1ncnc2nc(-c3ccc(N4CCOCC4)nc3)cc(-c3cccc(Br)c3)c12 [ABT-702]
effect of AICAr on LRRK2 levels in the presence of ABT-702 (LRRK2; SH-SY5Y, 1 mM AICAr plus 1 μM ABT-702, 48 hours): completely counteracted

NC(=O)c1ncn([C@@H]2O[C@H](COP(=O)(O)O)[C@@H](O)[C@H]2O)c1N [AICAR/ZMP, 5-aminoimidazole-4-carboxamide ribonucleotide]
membrane permeability [2]: membrane impermeable

N#Cc1c(O)c2c(-c3ccc(-c4ccccc4O)cc3)csc2[nH]c1=O [A769662]
LRRK2 levels (LRRK2; SH-SY5Y, 10, 20, or 50 μM A769662, 48 hours): no obvious effects

B1: DCP1A: recombinant Flag-tagged decapping enzyme purified from HEK 293T cells (protein, UniProt Q9NPI6 1-582, looked up)
mRNA-decapping enzyme 1A: MEALSRAGQEMSLAALKQHDPYITSIADLTGQVALYTFCPKANQWEKTDIEGTLFVYRRSASPYHGFTIVNRLNMHNLVEPVNKDLEFQLHEPFLLYRNASLSIYSIWFYDKNDCHRIAKLMADVVEEETRRSQQAARDKQSPSQANGCSDHRPIDILEMLSRAKDEYERNQMGDSNISSPGLQPSTQLSNLGSTETLEEMPSGSQDKSAPSGHKHLTVEELFGTSLPKEQPAVVGLDSEEMERLPGDASQKEPNSFLPFPFEQLGGAPQSETLGVPSAAHHSVQPEITTPVLITPASITQSNEKHAPTYTIPLSPVLSPTLPAEAPTAQVPPSLPRNSTMMQAVKTTPRQRSPLLNQPVPELSHASLIANQSPFRAPLNVTNTAGTSLPSVDLLQKLRLTPQHDQIQTQPLGKGAMVASFSPAAGQLATPESFIEPPSKTAAARVAASASLSNMVLAPLQSMQQNQDPEVFVQPKVLSSAIPVAGAPLVTATTTAVSSVLLAPSVFQQTVTRSSDLERKASSPSPLTIGTPESQRKPSIILSKSQLQDTLIHLIKNDSSFLSTLHEVYLQVLTKNKDNHNL
modifications: Flag tag
notes: recombinant Flag-tagged decapping enzyme purified from HEK 293T cells
LRRK2 mRNA decapping activity (m7GDP level) [1]: decapped LRRK2 mRNA

— patent publication US20240075050A1, “Methods and Compositions for Treating Leucine Rich Repeat Kinase 2 (LRRK2)-Associated Disorder or Condition” (University of Connecticut, priority 2022, published 2024)
